The test system of one experiment is HepG2. The experiment in a line: Cytotoxicity against human HepG2 cells assessed as reduction in cell viability incubated for 48 hrs by MTT assay. To be noted: HepG2, 48 h. It counts as functional, cell-based.
The nature of experiment [1]: Selectivity index, ratio of IC50 for cytotoxicity against human HL7702 cells to IC50 for cytotoxicity against human ECa-109 cells.
A further experiment concerns L02. Kind of experiment: Cytotoxicity against human HL7702 cells assessed as reduction in cell viability incubated for 48 hrs by MTT assay. It counts as ADME, cell-based. To be noted: L02, 48 h. In general terms: Formazan colour is commonly taken as a measure of viable cells.
In experiment [2] the test system is ECa-109 cell line. Kind of experiment: Induction of apoptosis in human ECa-109 cells assessed as late apoptotic cells at 2 uM incubated for 48 hrs by annexin-V-FITC and PI staining based fluorescence microscopic analysis (reference value: 2.01 %). It counts as functional.
The test system of experiment [3] is ECa-109 cell line. The experiment in a line: Induction of ROS-mediated apoptosis in human ECa-109 cells assessed as viable cells at 4 uM incubated for 48 hrs in presence of NAC by annexin V-PE and 7-AAD staining based flow cytometry analysis (reference value: 94 %). To be noted: read-out: Activity. The experiment is classed as functional. For orientation: In flow cytometry, cells or beads pass a laser one at a time.

The test system of experiment [4] is ECa-109 cell line. The experiment in a line: Induction of ROS-mediated apoptosis in human ECa-109 cells assessed as late apoptotic cells at 1 uM incubated for 48 hrs in presence of NAC by annexin V-PE and 7-AAD staining based flow cytometry analysis (reference value: 2.98 %). It counts as functional.
The subject of experiment [5] is ECa-109 cell line. Kind of experiment: Induction of ROS-mediated apoptosis in human ECa-109 cells assessed as late apoptotic cells at 4 uM incubated for 48 hrs by annexin V-PE and 7-AAD staining based flow cytometry analysis (reference value: 3.89 %). It counts as functional.
Experiment [6] concerns ECa-109 cell line. The experiment in a line: Induction of cell cycle arrest in human ECa-109 cells assessed as accumulation in S phase at 4 uM incubated for 48 hrs by PI staining based flow cytometry analysis (reference value: 39.33 %). The experiment is classed as functional.
The test system of experiment [7] is ECa-109 cell line. Kind of experiment: Induction of ROS generation in human […] cells incubated for 48 hrs by DCFH-DA staining based fluorescence microscopic analysis. It counts as functional. The settings on record: dose 1-4 µM.
Experiment [8] concerns ECa-109 cell line. Kind of experiment: Induction of apoptosis in human ECa-109 cells assessed as nuclear fragmentation at 1 to 4 uM incubated for 48 hrs by Hoechst staining based fluorescence microscopic analysis. To be noted: dose 1-4 µM. The experiment is classed as functional, cell-based.
Experiment [9] has as its system ECa-109 cell line. Kind of experiment: Induction of apoptosis in human ECa-109 cells assessed as early apoptotic cells at 4 uM incubated for 48 hrs by annexin-V-FITC and PI staining based fluorescence microscopic analysis (reference value: 0.971 %). The experiment is classed as functional.
Experiment [10] concerns ECa-109 cell line. Kind of experiment: Induction of apoptosis in human ECa-109 cells assessed as necrotic cells at 4 uM incubated for 48 hrs by annexin-V-FITC and PI staining based fluorescence microscopic analysis (reference value: 1.19 %). The experiment is classed as functional.
Experiment [11] deals with ECa-109 cell line. Kind of experiment: Induction of ROS-mediated apoptosis in human ECa-109 cells assessed as viable cells at 4 uM incubated for 48 hrs by annexin V-PE and 7-AAD staining based flow cytometry analysis (reference value: 92.7 %). It counts as functional. The settings on record: read-out: Activity.
Experiment [12] deals with ECa-109 cell line. The experiment in a line: Induction of ROS-mediated apoptosis in human ECa-109 cells assessed as necrotic cells at 4 uM incubated for 48 hrs by annexin V-PE and 7-AAD staining based flow cytometry analysis (reference value: 0.729 %). The experiment is classed as functional.
The subject of another experiment is HeLa. The experiment in a line: Cytotoxicity against human HeLa cells assessed as reduction in cell viability incubated for 48 hrs by MTT assay. The experiment is classed as functional, cell-based.
Experiment [13] deals with ECa-109 cell line. Kind of experiment: Induction of apoptosis in human ECa-109 cells assessed as downregulation of Bcl-2 incubated for 48 hrs by Western blot analysis. The settings on record: dose 1-4 µM. It counts as functional, cell-based. In general terms: A western blot detects proteins with antibodies after separation by electrophoresis.
The test system of experiment [14] is ECa-109 cell line. Kind of experiment: Induction of ROS-mediated apoptosis in human ECa-109 cells assessed as early apoptotic cells at 1 uM incubated for 48 hrs in presence of NAC by annexin V-PE and 7-AAD staining based flow cytometry analysis (reference value: 1.90 %). The experiment is classed as functional.
The test system of experiment [15] is SGC-7901. The experiment in a line: Cytotoxicity against human SGC-7901 cells assessed as reduction in cell viability incubated for 48 hrs by MTT assay. It counts as functional, cell-based. To be noted: SGC-7901, 48 h.
Experiment [16] deals with ECa-109 cell line. Kind of experiment: Cytotoxicity against human ECa-109 cells assessed as reduction in cell viability incubated for 48 hrs by MTT assay. The experiment is classed as functional, cell-based. To be noted: ECa-109, 48 h.
Experiment [17] concerns SGC-7901. Kind of experiment: Induction of mitochondrial membrane potential disruption in human SGC-7901 cells incubated for 48 hrs by JC-1 dye based flow cytometry analysis. The settings on record: Mitochondria, dose 1-4 µM.
The test system of experiment [18] is SGC-7901. Kind of experiment: Induction of apoptosis in human SGC-7901 cells assessed as decrease in PARP incubated for 48 hrs by Western blot analysis. The experiment is classed as functional, cell-based. The settings on record: dose 1-4 µM.
For experiment [19], the system named is SGC-7901. The experiment in a line: Induction of ROS-mediated apoptosis in human SGC-7901 cells assessed as early apoptotic cells at 2 uM incubated for 48 hrs by annexin V-PE and 7-AAD staining based flow cytometry analysis (reference value: 1.89 %). The experiment is classed as functional.
Experiment [20] has as its system SGC-7901. Kind of experiment: Induction of apoptosis in human SGC-7901 cells assessed as necrotic cells at 4 uM incubated for 48 hrs by annexin-V-FITC and PI staining based fluorescence microscopic analysis (reference value: 1.03 %). It counts as functional.
For experiment [21], the system named is SGC-7901. Kind of experiment: Induction of apoptosis in human SGC-7901 cells assessed as downregulation of Bcl-xl incubated for 48 hrs by Western blot analysis. The experiment is classed as functional, cell-based. To be noted: dose 1-4 µM.
The subject of experiment [22] is SGC-7901. Kind of experiment: Induction of cell cycle arrest in human SGC-7901 cells assessed as accumulation in S phase at 4 uM incubated for 48 hrs by PI staining based flow cytometry analysis (reference value: 31.13 %). The experiment is classed as functional.
Experiment [23] concerns SGC-7901. Kind of experiment: Induction of cell cycle arrest in human SGC-7901 cells assessed as accumulation in G0/G1 phase at 2 uM incubated for 48 hrs by PI staining based flow cytometry analysis (reference value: 57.39 %). It counts as functional.
For experiment [24], the system named is SGC-7901. The experiment in a line: Induction of apoptosis in human SGC-7901 cells assessed as downregulation of Bcl-2 incubated for 48 hrs by Western blot analysis. The experiment is classed as functional, cell-based. To be noted: dose 1-4 µM.
Experiment [25] deals with SGC-7901. Kind of experiment: Induction of cell cycle arrest in human SGC-7901 cells assessed as accumulation in G2/M phase at 4 uM incubated for 48 hrs by PI staining based flow cytometry analysis (reference value: 11.48 %). The experiment is classed as functional.
Experiment [26] relates to SGC-7901. Kind of experiment: Induction of cell cycle arrest in human SGC-7901 cells assessed as accumulation in G2/M phase at 2 uM incubated for 48 hrs by PI staining based flow cytometry analysis (reference value: 11.48 %). It counts as functional.
Experiment [27] deals with ECa-109 cell line. Kind of experiment: Induction of apoptosis in human ECa-109 cells assessed as decrease in PARP incubated for 48 hrs by Western blot analysis. The experiment is classed as functional, cell-based. The settings on record: dose 1-4 µM.
Experiment [28] deals with SGC-7901. Kind of experiment: Induction of ROS-mediated apoptosis in human SGC-7901 cells assessed as necrotic cells at 4 uM incubated for 48 hrs by annexin V-PE and 7-AAD staining based flow cytometry analysis (reference value: 0.733 %). The experiment is classed as functional.
Experiment [29] has as its system SGC-7901. The experiment in a line: Induction of apoptosis in human SGC-7901 cells at 1 to 4 uM incubated for 48 hrs by AO/PI staining based fluorescence microscopic analysis. The experiment is classed as functional, cell-based. The settings on record: dose 1-4 µM.
Experiment [30] relates to SGC-7901. Kind of experiment: Induction of ROS-mediated apoptosis in human SGC-7901 cells assessed as late apoptotic cells at 4 uM incubated for 48 hrs by annexin V-PE and 7-AAD staining based flow cytometry analysis (reference value: 3.82 %). It counts as functional.
Experiment [31] deals with SGC-7901. Kind of experiment: Induction of apoptosis in human SGC-7901 cells assessed as nuclear fragmentation at 1 to 4 uM incubated for 48 hrs by Hoechst staining based fluorescence microscopic analysis. It counts as functional, cell-based. To be noted: dose 1-4 µM.
Experiment [32] relates to SGC-7901. Kind of experiment: Induction of ROS-mediated apoptosis in human SGC-7901 cells assessed as viable cells at 1 uM incubated for 48 hrs by annexin V-PE and 7-AAD staining based flow cytometry analysis (reference value: 93.6 %). The experiment is classed as functional. The settings on record: read-out: Activity.

Calls of active or inactive are those of the source. No cut-off for these calls is given here.

For orientation: IC50 means the concentration at which inhibition is half-maximal. Consider `COc1ccccc1Cn1n[n+](C)c2c1C(C)(C)[C@@H]1CC[C@]3(C)[C@H](CC[C@@H]4[C@H]5[C@H]6OC[C@@]5(CCC6(C)C)CC[C@]43C)[C@@]1(C)C2.[I-]`, for which the IC50 in the experiment with HepG2 was 1520 nM; with L02, 1590 nM; with HeLa, 1490 nM; in the experiment on SGC-7901 [15], 1920 nM; with ECa-109 cell line [16], 1040 nM. In addition, in experiment [1], the “Ratio IC50” value amounted to 1.53. Also, the Activity with ECa-109 cell line [2] is 23%; in the experiment on ECa-109 cell line [4] it was 13.7%; in the experiment on ECa-109 cell line [5] it was 95%; in the experiment on ECa-109 cell line [6] it was 43.8%; in the experiment on ECa-109 cell line [7], “Dose-dependent effect”; with ECa-109 cell line [9], 2.92%. The Activity is 3.58% with ECa-109 cell line [10], 2.19% with ECa-109 cell line [12], “Dose-dependent effect” in the experiment with ECa-109 cell line [13] and 8.01% in the experiment with ECa-109 cell line [14]. The viability at 4 µM with ECa-109 cell line [3] came out at 13.8%; in the experiment on ECa-109 cell line [11] it was 0.811%. Further, the result in the experiment with ECa-109 cell line [8] was Active.
For `C[n+]1nn(Cc2c(F)cccc2Cl)c2c1C[C@]1(C)[C@H]3CC[C@@H]4[C@H]5[C@H]6OC[C@@]5(CCC6(C)C)CC[C@@]4(C)[C@]3(C)CC[C@H]1C2(C)C.[I-]`, the Activity entry in the experiment with SGC-7901 [17] is “Dose-dependent effect”; with SGC-7901 [18], “Dose-dependent effect”; in the experiment with SGC-7901 [19], 26.5%; in the experiment with SGC-7901 [20] it was 0.158%; in the experiment with SGC-7901 [21], “Dose-dependent effect”; in the experiment with SGC-7901 [22] it was 22.27%. Moreover, the Activity in the experiment on SGC-7901 [23] was 74.64%; in the experiment on SGC-7901 [24], “Dose-dependent effect”; in the experiment with SGC-7901 [25] it was 18.35%; in the experiment on SGC-7901 [26], 9.6%; in the experiment on ECa-109 cell line [27] it was “Dose-dependent effect”; in the experiment with SGC-7901 [28], 0.028%. The Activity in the experiment on SGC-7901 [30] amounted to 99.6%. Further, the IC50 in the experiment on HepG2 was 2620 nM; in the experiment on L02, 2330 nM; in the experiment on HeLa, 2160 nM; in the experiment on SGC-7901 [15] it was 1120 nM; with ECa-109 cell line [16] it was 2630 nM. The outcome in the experiment on SGC-7901 [29] and with SGC-7901 [31] was Active. Further, in the experiment with SGC-7901 [32], the viability at 1 µM came out at 80.5%.
